Like-named read-outs stand apart in the source and are kept apart here.
Key:
[1] = Plasma protein binding, equilibrium dialysis (human); type: in vitro ADME; conditions: pH 7.4, equilibrium dialysis 6 hours, read-out: PPB (human), percent of unbound fraction
[2] = Mouse pharmacokinetic studies; type: in vivo, male C57BL/6J mice; design: AUClast/D: unit not given here; conditions: PO 5 mg/kg; for AUC(0-inf) / AUC(0-t) / Cmax / Tmax / half-life / MRT inf: male, C57BL/6J; for MRT inf: read-out: MRTInf—obs
Procedure: The rat pharmacokinetics studies of exemplary compounds 03-3, 03-5, and 03-115 were conducted with male SD rats. These rats were typically about 6-8 weeks old, weighing 200 g to 300 g. Animals were fasted overnight and free access to food 4 hours after dosing. A required volume of vehicle was added to reach the target concentration of the test article and vehicle component to prepare for the dosing. The dosing vehicle was PEG400 or 30% PEG400 in saline for IV, or 0.5% methylcellulose in water for PO. For IV dosing, the animals were administered intravenously via tail vein. For PO dosing, the animals were administered via oral gavage. After dosing, blood sample was collected (˜0.2 mL per time point) through jugular vein or heart puncture. Blood of each sample was transferred into plastic micro centrifuge tubes containing EDTA-K2. Collection tubes with blood samples and anticoagulant were inverted several times for proper mixing of the tube contents and then placed on wet ice. The blood samples were centrifuged at 2000 g for 5 minutes at 4° C. to obtain plasma which was stored in a freezer at −75±15° C. prior to analysis. Samples were analyzed using LC-MS/MS. WinNonlin were used for pharmacokinetic calculations.
Mouse pharmacokinetics studies of exemplar compounds 03-3 and 03-5 were conducted substantially similarly to the rat pharmacokinetic studies, instead using male C57BL/6J mice. These mice were typically about 6-8 weeks old, weighing 20 g to 30 g. Animals were free access to food before dosing. Sample amount was ˜0.03 mL per time point and sample site was dorsal metatarsal or heart puncture.

[3] = Plasma protein binding, equilibrium dialysis (rat); type: in vitro ADME; conditions: pH 7.4, equilibrium dialysis 6 hours, read-out: PPB (rat), percent of unbound fraction
Procedure: Preparation of 100 mM sodium phosphate and 150 mM NaCl buffer (PBS). A basic solution was prepared by dissolving 14.2 g/L Na2HPO4 and 8.77 g/L NaCl in deionized water and the solution could be stored at 4° C. for up to 7 days. An acidic solution was prepared by dissolving 12.0 g/L NaH2PO4 and 8.77 g/L NaCl in deionized water and the solution could be stored at 4° C. for up to 7 days. The basic solution was titrated with the acidic solution to pH 7.4 and store at 4° C. for up to 7 days. pH was checked on the day of experiment and was adjusted if outside specification of 7.4±0.1.
Thawing of the frozen plasma (stored at −80° C.). Frozen plasma was thawed immediately at room temperature. The plasma was centrifuged at 3,220 g for 10 minutes to remove clots and supernatant was collected into a fresh tube. The pH of the plasma was checked and recorded. Note: a). Only use plasma that has been thawed no more than twice since arrival. b). Only use plasma within the range of pH 7 to pH 8.
Preparation of working solutions. The working solutions of test compound and control compound ketoconazole were prepared in DMSO at the concentration of 200 μM. And then 3 μL of working solutions was removed to mix with 597 μL of rat plasma to achieve a final concentration of 1 μM (0.5% DMSO). Plasma samples were vortexed thoroughly.
Preparation of dialysis membranes. The dialysis membranes were soaked in ultrapure water for 60 minutes to separate strips, then in 20% ethanol for 20 minutes, finally in dialysis buffer for 20 minutes.
Procedure for equilibrium dialysis. The dialysis apparatus was assembled according to the manufacturer's instruction. Each Cell was filled with 120 μL of spiked plasma sample and dialyzed against equal volume of dialysis buffer (PBS). The assay was performed in duplicate. The dialysis plate was sealed and incubated in an incubator at 37° C. with 5% CO2 at 100 rpm for 6 hours. At the end of incubation, seal was removed and 50 μL of samples from both buffer and plasma chambers were transferred to wells of a 96-well plate.
Procedure for sample preparation. […]

SMILES	fraction unbound at 6 h, 1 μM [1]	AUClast/D [2]	AUC—% Extrap—obs [2] [%]	F [2] [%]	AUC(0-inf) ([2]; plasma) [ng·h/mL]	AUC(0-t) ([2]; plasma) [ng·h/mL]	Cmax ([2]; plasma) [ng/mL]	Tmax ([2]; plasma) [h]	half-life ([2]; plasma) [h]	MRT inf ([2]; plasma) [h]	fraction unbound at 6 h, 1 μM [3]	AUC(0-inf) ([2]; in vivo) [ng·h/mL]	Cmax ([2]; in vivo) [ng/mL]	Tmax ([2]; in vivo) [h]	MRT inf ([2]; in vivo) [h]
CC(C)(C)NC[C@H](O)c1cccc(C(F)(F)F)n1 [Compound 03-3]	0.89	774	0.958	85.1	3910	3870	1020	0.25	3.78	4.08	0.9	–	–	–	–
Cc1ncccc1[C@@H](O)CNC(C)(C)C [Compound 03-115]	1	–	–	112	–	–	–	–	–	–	0.97	3020	1750	0.5	1.8
CC(C)(C)NC[C@H](O)c1cccc(C#N)n1 [Compound 03-5, (S)-6-(2-(tert-butylamino)-1-hydroxyethyl)picolinonitrile]	1	1214	0.0845	163	6080	6070	1940	0.917	2.51	2.43	1	–	–	–	–
